# Laboratory results taken from patent US11351151B2, “Compound having anticancer activity and preparation method and application” (3D Medicines (Beijing) Co., Ltd., priority 2016, dated 2022).
# Legend:
# Test in all cases: Cell proliferation assay (Alamar Blue)
# Assay type in all cases: cell-based
# [1] = system: NCl-H716; settings: 144 h; NCl-H716 tumor cell line; 6 days
# How it was run: (§1)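 Seeding density per line set in pilot runs (500–1×10^4/well); treatment began after 4 h with a 3.16-fold, nine-point series from 30 or 100 μM, in duplicate. Six days later, 1–4 h AlamarBlue incubation, fluorescence read, inhibition relative to control wells fitted for IC50.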
# [2] = system: HuTu80; settings: Homo sapiens, 144 h; HuTu80 tumor cell line; 6 days
# How it was run: as §1
# [3] = system: NCl-H661; settings: 144 h; NCl-H661 tumor cell line; 6 days
# How it was run: as §1
# [4] = system: AN3CA; settings: Homo sapiens, AN3-CA, 144 h; AN3CA (endometrial cells); 6 days
# How it was run: as §1
# [5] = system: JHH5; settings: 144 h; JHH5 liver cancer cell line; 6 days
# How it was run: as §1
# [6] = system: SNU449; settings: Homo sapiens, SNU-449, 144 h; SNU449 liver cancer cell line; 6 days
# How it was run: as §1
# [7] = system: SNU398; settings: Homo sapiens, SNU-398, 144 h; SNU398 liver cancer cell line; 6 days
# How it was run: as §1
# [8] = system: HLF; settings: 144 h; HLF liver cancer cell line; 6 days
# How it was run: as §1
# [9] = system: SNU354; settings: Homo sapiens, SNU-354, 144 h; SNU354 liver cancer cell line; 6 days
# How it was run: as §1
# [10] = system: T.T; settings: Homo sapiens, TT, 144 h; T.T tumor cell line; 6 days
# How it was run: as §1
# [11] = system: SNU886; settings: SNU-886, 144 h; SNU886 liver cancer cell line; 6 days
# How it was run: as §1
# [12] = system: JHH1; settings: 144 h; JHH1 liver cancer cell line; 6 days
# How it was run: as §1
# [13] = system: SK-HEP-1; settings: Homo sapiens, SK-HEP1, 144 h; SK-HEP-1 liver cancer cell line; 6 days
# How it was run: as §1
# [14] = system: TE-6; settings: Homo sapiens, 144 h; TE-6 tumor cell line; 6 days
# How it was run: as §1
# [15] = system: MDA-MB-435S; settings: Homo sapiens, 144 h; MDA-MB-435S tumor cell line; 6 days
# How it was run: as §1
# [16] = system: CCRF-CEM; settings: Homo sapiens, 144 h; CCRF-CEM tumor cell line; 6 days
# How it was run: as §1
# [17] = system: MDA-MB-231; settings: Homo sapiens, 144 h; MDA-MB-231 tumor cell line; 6 days
# How it was run: as §1
# [18] = system: NCl-H2170; settings: 144 h; NCl-H2170 tumor cell line; 6 days
# How it was run: as §1
# [19] = system: SNU475; settings: Homo sapiens, SNU-475, 144 h; SNU475 liver cancer cell line; 6 days
# How it was run: as §1
# [20] = system: MFM-223; settings: Homo sapiens, 144 h; MFM-223 tumor cell line; 6 days
# How it was run: as §1
# [21] = system: NCl-H526; settings: 144 h; NCl-H526 tumor cell line; 6 days
# How it was run: as §1
# [22] = system: JHH2; settings: JHH-2, 144 h; JHH2 liver cancer cell line; 6 days
# How it was run: as §1
# [23] = system: Hep3B2.1-7; settings: 144 h; Hep3B2.1-7 liver cancer cell line; 6 days
# How it was run: as §1
IC50 [1] [µM],IC50 [3] [µM],IC50 [6] [µM],IC50 [7] [µM],IC50 [9] [µM],IC50 [11] [µM],IC50 [13] [µM],IC50 [15] [µM],IC50 [16] [µM],IC50 [17] [µM],IC50 [18] [µM],IC50 [19] [µM],Structure (SMILES),IC50 [2] [µM],IC50 [4] [µM],IC50 [5] [µM],IC50 [8] [µM],IC50 [10] [µM],IC50 [12] [µM],IC50 [14] [µM],IC50 [20] [µM],further results
2.84,11.3,8.39,6.37,7.01,3.75,9.25,30,6.33,5.02,3.46,6.37,Cc1ccc(F)c(NC(=O)Nc2ccc(-c3cccc4c3c(N)nn4C(=O)C[C@H](N)C(=O)N[C@@H](CCC(=O)N[C@@H](CCC(=O)N[C@@H](CCC(=O)N[C@@H](CCC(=O)O)C(=O)O)C(=O)O)C(=O)O)C(=O)O)cc2)c1 [Compound 2],5.62,0.45,21.3,4.94,8.29,11.3,7.03,10.3,IC50 [21]: 8.94 µM; IC50 [22]: 36 µM; IC50 [23]: 3.43 µM
1.93,5.47,4.91,2.99,4.57,1.45,2.75,13.3,1.74,3.17,1.24,3.88,Cc1ccc(F)c(NC(=O)Nc2ccc(-c3cccc4c3c(N)nn4C(=O)C[C@H](N)C(=O)O)cc2)c1 [Compound 10],2.63,0.24,12.4,3.87,4.37,7.43,4.11,5.63,IC50 [21]: 4.39 µM; IC50 [22]: 25.1 µM; IC50 [23]: 1.23 µM
6.09,21.1,14.6,17.1,16.8,9.06,15.8,46.4,10.2,8.51,7.89,9.62,Cc1ccc(F)c(NC(=O)Nc2ccc(-c3cccc4c3c(N)nn4C(=O)C[C@H](N)C(=O)N[C@@H](CCC(=O)N[C@@H](CCC(=O)N[C@@H](CCC(=O)N[C@@H](CCC(=O)N[C@@H](CCC(=O)N[C@@H](CCC(=O)N[C@@H](CCC(=O)N[C@@H](CCC(=O)N[C@@H](CCC(=O)O)C(=O)O)C(=O)O)C(=O)O)C(=O)O)C(=O)O)C(=O)O)C(=O)O)C(=O)O)C(=O)O)cc2)c1 [Compound 3],7.33,0.64,31,7.73,19.8,14.9,11.3,21.9,IC50 [21]: 11.3 µM; IC50 [22]: 40.7 µM; IC50 [23]: 5.33 µM

Structure (SMILES),IC50 [1] [µM],IC50 [3] [µM],IC50 [6] [µM],IC50 [7] [µM],IC50 [9] [µM],IC50 [11] [µM],IC50 [13] [µM],IC50 [15] [µM],IC50 [16] [µM],IC50 [17] [µM],IC50 [18] [µM],IC50 [19] [µM],IC50 [2] [µM],IC50 [4] [µM],IC50 [5] [µM],IC50 [8] [µM],IC50 [10] [µM],IC50 [12] [µM],IC50 [14] [µM],IC50 [20] [µM],further results
Cc1ccc(F)c(NC(=O)Nc2ccc(-c3cccc4c3c(N)nn4C(=O)CCCCCCCCCCCNC(=O)C[C@H](N)C(=O)N[C@@H](CCC(=O)N[C@@H](CCC(=O)N[C@@H](CCC(=O)N[C@@H](CCC(=O)N[C@@H](CCC(=O)N[C@@H](CCC(=O)N[C@@H](CCC(=O)N[C@@H](CCC(=O)N[C@@H](CCC(=O)O)C(=O)O)C(=O)O)C(=O)O)C(=O)O)C(=O)O)C(=O)O)C(=O)O)C(=O)O)C(=O)O)cc2)c1 [Compound 9],43.1,> 100,90,82.7,67.3,> 100,> 100,> 100,30.2,81.1,84,77.8,73.5,8.42,> 100,63.4,> 100,> 100,> 100,38.3,IC50 [21]: > 100 µM; IC50 [22]: > 100 µM; IC50 [23]: 52.8 µM
